One assay relates to KCHSC. Kind of assay: Pre-emergence action against KCHSC, 1280 g/ha. To be noted: scored visually after about 3 weeks vs untreated controls (100% = plants have died). In kind it is in vivo, Bassia scoparia. In short, it runs like this:
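Each pot was doubly sown in sandy loam and covered, then its soil surface was treated with compound suspension or emulsion containing 0.5% additive at 600 L/ha water. Plants grew in a greenhouse; effect was rated visually as percentages versus controls after about 3 weeks.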

For the next assay, the system named is ABUTH. Kind of assay: Pre-emergence action at 320 g/ha against ABUTH. In kind it is in vivo, Abutilon theophrasti. As to conditions: greenhouse, scored visually after about 3 weeks vs untreated controls, 100% = plants have died, 0% = like control plants. The essentials:
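Sow seeds, cover with soil, spray soil surface (WP/EC, 0.5% additive, 600 l/ha water), hold in greenhouse ~3 wk, then rate % activity visually against untreated controls.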

The subject of a further assay is HORMU. As to the kind of experiment: Pre-emergence action at 320 g/ha against HORMU. In kind it is in vivo, Hordeum murinum. As to conditions: greenhouse, scored visually after about 3 weeks vs untreated controls, 100% = plants have died, 0% = like control plants. An excerpt:
b) Seeds of monocotyledonous and dicotyledonous weed plants and crop plants are placed in plastic or organic planting pots and covered with soil. The compounds of the invention, formulated in the form of wettable powders (WP) or as emulsion concentrates (EC), are then applied onto the surface of the covering soil as aqueous suspension or emulsion with addition of 0.5% additive at a water application rate of 600 l/ha (converted). After the treatment, the pots are placed in a greenhouse and kept under good growth conditions for the trial plants. After about 3 weeks, the effect of the preparations is scored visually in comparison with untreated controls as percentages. For example, 100% activity=the plants have died, 0% activity=like control plants. Tables 13 to 26 below show the effects of selected compounds of the general formula (I) on various harmful plants and at an application rate corresponding to 320 g/ha, which were obtained by the experimental procedure mentioned above.

Molecules are shown by their SMILES.

With `CN(C)S(=O)(=O)NC(=O)COc1nn(-c2ccccc2F)c(-c2ccc(F)nc2)c1Br` [Example X-005], the “Pre-emergence action against KCHSC” value in the assay on KCHSC turned out to be 90%.
With `COC(=O)COc1nn(-c2ccccc2F)c(-c2cncnc2)c1Br` [VI-004, Methyl {[4-bromo-1-(2-fluorophenyl)-5-(pyrimidin-5-yl)-1H-pyrazol-3-yl]oxy}acetate], the “Pre-emergence action at 320 g/ha against ABUTH in %” value in the assay with ABUTH was 80%. Further, the “Pre-emergence action at 320 g/ha against HORMU in %” value with HORMU stood at 100%.
Regarding `O=C(O)COc1nn(-c2ccccc2F)c(-c2cncnc2)c1Br` [VI-007, {[4-Bromo-1-(2-fluorophenyl)-5-(pyrimidin-5-yl)-1H-pyrazol-3-yl]oxy}acetic Acid], the “Pre-emergence action at 320 g/ha against HORMU in %” value in the assay on HORMU was determined as 100%.
`COC(=O)[C@@H](C)Oc1nn(-c2ccccc2F)c(-c2cncnc2)c1Br` [VI-011, Methyl (2R)-2-{[4-bromo-1-(2-fluorophenyl)-5-(pyrimidin-5-yl)-1H-pyrazol-3-yl]oxy}propanoate]: the “Pre-emergence action against KCHSC” value in the assay with KCHSC came to 100%. Further, the “Pre-emergence action at 320 g/ha against ABUTH in %” value in the assay on ABUTH is listed as 80%.
For `C[C@@H](Oc1nn(-c2ccccc2F)c(-c2cncnc2)c1Br)C(=O)O` [VI-012] the same measures were 100% and 80%.
As to `COC(=O)[C@@H](C)Oc1nn(-c2ccccc2)c(-c2cncnc2)c1Br` [VI-013], the “Pre-emergence action against KCHSC” value in the assay on KCHSC is reported as 100%. Besides, the “Pre-emergence action at 320 g/ha against ABUTH in %” value with ABUTH is 80%.
Take `COC(=O)COc1nn(-c2ccc(F)cc2)c(-c2ccc(F)nc2)c1Br` [VII-002]: the “Pre-emergence action at 320 g/ha against HORMU in %” value in the assay with HORMU stood at 80%.
With `O=C(O)COc1nn(-c2ccccc2F)c(-c2ccc(F)nc2)c1Br` [VII-003, {[4-Bromo-1-(2-fluorophenyl)-5-(6-fluoropyridin-3-yl)-1H-pyrazol-3-yl]oxy}acetic acid], the “Pre-emergence action at 320 g/ha against HORMU in %” value in the assay with HORMU was found to be 90%.
Turning to `COC(=O)[C@@H](C)Oc1nn(-c2ccccc2)c(-c2cccnc2)c1Br` [VII-008], in the assay on KCHSC, the “Pre-emergence action against KCHSC” value stood at 90%. In addition, in the assay on ABUTH, the “Pre-emergence action at 320 g/ha against ABUTH in %” value is recorded as 80%.
Turning to `CCOC(=O)COc1nn(-c2ccccc2F)c(-c2ccc(F)nc2)c1Br` [VII-012, Ethyl {[4-bromo-1-(2-fluorophenyl)-5-(6-fluoropyridin-3-yl)-1H-pyrazol-3-yl]oxy}acetate], the “Pre-emergence action at 320 g/ha against HORMU in %” value with HORMU was found to be 80%.
Take `COC(=O)C(C)Oc1nn(-c2ccccc2)c(-c2ccc(F)nc2)c1Br` (stereo not shown) [VII-014]: in the assay with KCHSC, the “Pre-emergence action against KCHSC” value came to 100%.
As for `CCOC(=O)COc1nn(-c2ccccc2F)c(-c2cncc(F)c2)c1Br` [VII-015], the “Pre-emergence action at 320 g/ha against ABUTH in %” value in the assay with ABUTH is 80%.
Regarding `CCOC(=O)COc1nn(-c2ccc(F)cc2F)c(-c2ccc(F)nc2)c1Cl` [VII-016], in the assay on HORMU, the “Pre-emergence action at 320 g/ha against HORMU in %” value was determined as 90%.
Take `COC(=O)COc1nn(-c2ccccc2)c(-c2ccc(F)nc2)c1Br` [VII-018]: the “Pre-emergence action against KCHSC” value in the assay on KCHSC turned out to be 90%.
Turning to `CCOC(=O)C(C)Oc1nn(-c2ccccc2F)c(-c2ccc(F)nc2)c1Br` (stereo not shown) [VII-019], the “Pre-emergence action against KCHSC” value in the assay on KCHSC came out at 100%. Moreover, the “Pre-emergence action at 320 g/ha against HORMU in %” value with HORMU is 100%.
As for `COC(=O)C(C)Oc1nn(-c2ccccc2)c(-c2ccc(F)nc2)c1Cl` (stereo not shown) [VII-023, Methyl 2-{[4-chloro-5-(6-fluoropyridin-3-yl)-1-phenyl-1H-pyrazol-3-yl]oxy}propanoate], in the assay on HORMU, the “Pre-emergence action at 320 g/ha against HORMU in %” value came out at 100%.
Turning to `O=C(O)COc1nn(-c2ccccc2F)c(-c2cncc(F)c2)c1Br` [VII-025], in the assay with KCHSC, the “Pre-emergence action against KCHSC” value was 90%.
On the same count and under the same terms, with `COC(=O)C(C)Oc1nn(-c2ccccc2)c(-c2ccc(F)nc2)c1Br` (stereo not shown) [VII-026] the figure was 100%.
Regarding `COC(=O)COc1nn(-c2ccc(F)cc2)c(-c2cccnc2)c1Br` [VII-028], the “Pre-emergence action at 320 g/ha against ABUTH in %” value with ABUTH was 90%.
As for `CCC(Oc1nn(-c2ccccc2F)c(-c2ccc(F)nc2)c1Br)C(=O)OC` (stereo not shown) [VII-029], in the assay with KCHSC, the “Pre-emergence action against KCHSC” value is 90%. In the assay on HORMU, the “Pre-emergence action at 320 g/ha against HORMU in %” value came to 90%.
Turning to `COC(=O)C(C)Oc1nn(-c2ccccc2)c(-c2cccnc2)c1Cl` (stereo not shown) [VII-032], the “Pre-emergence action at 320 g/ha against HORMU in %” value in the assay on HORMU is given as 80%.
On to `COC(=O)COc1nn(-c2ccccc2F)c(-c2cncc(F)c2)c1Br` [VII-035], for which, in the assay on KCHSC, the “Pre-emergence action against KCHSC” value turned out to be 90%. In addition, the “Pre-emergence action at 320 g/ha against ABUTH in %” value in the assay on ABUTH came to 90%.
For the compound `CCOC(=O)C(C)Oc1nn(-c2ccccc2F)c(-c2ccc(F)nc2)c1I` (stereo not shown) [VII-057], the “Pre-emergence action against KCHSC” value in the assay on KCHSC came to 100%.
Same read-out and setting: the value for `COC(=O)[C@@H](C)Oc1nn(-c2cc(F)ccc2F)c(-c2ccc(F)nc2)c1Br` [VII-062] was 100%.
With `COC(=O)[C@@H](C)Oc1nn(-c2cc(F)ccc2F)c(-c2cncc(F)c2)c1Br` [VII-132], in the assay on KCHSC, the “Pre-emergence action against KCHSC” value turned out to be 100%. In the assay on ABUTH, the “Pre-emergence action at 320 g/ha against ABUTH in %” value is 90%.
As to `COC(=O)[C@@H](C)Oc1nn(-c2cc(F)ccc2F)c(-c2cncc(F)c2)c1C#N` [VII-147], the “Pre-emergence action against KCHSC” value with KCHSC worked out at 100%.
On to `CCOC(=O)COc1nn(-c2ccccc2F)c(-c2ccnc(F)c2)c1Br` [VIII-003, Ethyl {[4-bromo-1-(2-fluorophenyl)-5-(2-fluoropyridin-4-yl)-1H-pyrazol-3-yl]oxy}acetate], for which the “Pre-emergence action at 320 g/ha against HORMU in %” value in the assay on HORMU was found to be 90%.
As for `COC(=O)[C@@H](C)Oc1nn(-c2ccccc2F)c(-c2ccnc(F)c2)c1Br` [VIII-006], the “Pre-emergence action against KCHSC” value with KCHSC worked out at 100%.

These data come from patent US12180187B2, “1-phenyl-5-azinylpyrazolyl-3-oxyalkyl acids and their use for controlling unwanted plant growth” (BAYER AKTIENGESELLSCHAFT, priority 2019, dated 2024).
